Reference: patent US20250136702A1, “HUMAN LIFR ANTIGEN BINDING PROTEIN, PREPARATION METHOD THEREFOR, AND APPLICATION THEREOF” (NONA BIOSCIENCES (SUZHOU) CO., LTD., priority 2020, published 2025)

Test system: Human pancreatic cancer Capan-2 cells
Assay: Pharmacodynamics in Capan-2 tumor mouse model
Type: in vivo, Balb/c nude mice
Conditions: Capan-2 model, TIW × 9 doses
Method: In this experiment, Capan-2 tumor mouse model was used to study the anti-tumor activity of anti-human LIFR antibody. The pharmacodynamics of PR300516 antibody administered alone (5 mg/kg and 15 mg/kg) in Capan-2 mouse model were studied. Human pancreatic cancer Capan-2 cells (ATCC cell bank) were subcutaneously inoculated into female Balb/c nude mice (charles river). The treatment method of the antibody group is: on the 5th day, the 9th day, the 12th day, the 16th day, the 19th day and the 23rd day after the tumor cell inoculation, the mice of each group are injected with the corresponding antibodies in the intraperitoneal cavity. The treatment method of the small molecule inhibitor group is: EC359 small molecule inhibitors were administered orally to mice on days 5, 7, 9, 12, 14, 16, 19, 21 and 23 after tumor cell inoculation. The tumor volume was measured on the 5th, 9th, 12th, 16th, 19th and 23rd days after tumor cell inoculation, and then the mice were euthanized.

Q: For `C#CC(F)(F)[C@]1(O)CC[C@H]2[C@@H]3CCC4=CC(=O)CCC4=C3[C@@H](c3ccc(-c4c(C)cc(C)cc4C)cc3)C[C@@]21C` [EC359, reference compound], which “TGI (%)” value (5 mg/kg oral) is on record?
A: 40.99%

Q: And the “TGI (%)” value (15 mg/kg oral)?
A: 47.85%
